Measured values published in ChEMBL document CHEMBL1201862, “PubChem BioAssay data set” (2004).
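Growth conditions: 96-well plates. Treatment: test compound, 48 hours, 5 concentrations. Analysis: linear interpolation between bracketing concentrations; unreached endpoints set to highest concentration. Here, GI50 denotes the concentration required for 50% inhibition of growth.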 The source made the active and inactive calls. Cut-off read from the data, not from the text of the source: active = GI50 up to about 1.1 µM and inactive = higher.

Assays:
Assay in all cases: growth of human tumour cells (NCI), 48 h
EKVX = tested on: EKVX
UACC-257 = tested on: UACC-257
SN12C = tested on: SN12C
TK-10 = tested on: TK-10
M14 = tested on: M14
KM12 = tested on: KM12
MOLT-4 = tested on: MOLT-4
HCT-15 = tested on: HCT-15
HOP-62 = tested on: HOP-62
NCI/ADR-RES = tested on: NCI/ADR-RES
A549 = tested on: A549
COLO 205 = tested on: COLO 205
RPMI-8226 = tested on: RPMI-8226
RXF 393 = tested on: RXF 393
OVCAR-3 = tested on: OVCAR-3
NCI-H460 = tested on: NCI-H460
PC-3 = tested on: PC-3
DU-145 = tested on: DU-145
Malme-3M = tested on: Malme-3M
DMS-273 = tested on: DMS-273

Structure (SMILES)	GI50 (EKVX)	GI50 (UACC-257)	GI50 (SN12C)	GI50 (TK-10)	GI50 (M14)	GI50 (KM12)	GI50 (MOLT-4)	GI50 (HCT-15)	GI50 (HOP-62)	GI50 (NCI/ADR-RES)	GI50 (A549)	GI50 (COLO 205)	GI50 (RPMI-8226)	GI50 (RXF 393)	GI50 (OVCAR-3)	GI50 (NCI-H460)	GI50 (PC-3)	GI50 (DU-145)	GI50 (Malme-3M)	GI50 (DMS-273)
COc1cccc2nc3c(C(=O)NCCN(C)C)cccc3cc12	2.38 µM (inactive)	1.92 µM (inactive)	1.16 µM (inactive)	2.57 µM (inactive)	1.64 µM (inactive)	2.3 µM (inactive)	0.325 µM (active)	1.91 µM	1.19 µM (inactive)	2.71 µM (inactive)	0.473 µM (active)	1.13 µM (inactive)	1.21 µM (inactive)	3.94 µM (inactive)	3.14 µM (inactive)	0.195 µM (active)	2.34 µM (inactive)	5.74 µM (inactive)	1.56 µM (inactive)	
O=C(O/N=C1/CCCC/C1=C\c1ccccc1)c1ccccc1	> 100 µM (inactive)	> 100 µM (inactive)	> 100 µM (inactive)	> 100 µM (inactive)	> 100 µM (inactive)	45.3 µM (inactive)	24.5 µM (inactive)	84.3 µM	> 100 µM (inactive)		> 100 µM (inactive)	> 100 µM (inactive)	> 100 µM (inactive)	> 100 µM (inactive)	> 100 µM (inactive)	> 10 µM (inactive)			> 100 µM (inactive)	40.3 µM (inactive)
O=C1CC2CCN(C(=O)c3ccccc3)CC2CCN1.O=C1CCC2CC(C(=O)c3ccccc3)CCC2CN1 (stereo unspecified)	> 100 µM (inactive)	> 100 µM (inactive)	> 100 µM (inactive)		> 100 µM (inactive)	> 100 µM (inactive)	> 100 µM (inactive)	> 100 µM	> 100 µM (inactive)		> 100 µM (inactive)	> 100 µM (inactive)	> 100 µM (inactive)	> 100 µM (inactive)	> 100 µM (inactive)	> 100 µM (inactive)			> 100 µM (inactive)	> 100 µM (inactive)
C=CCc1cc(OC)c(O)c(C(=O)/C=C/c2ccc(OC)c(OC)c2)c1	20.2 µM (inactive)	19.3 µM (inactive)		25.1 µM (inactive)	17 µM (inactive)	19.5 µM (inactive)	1.2 µM (inactive)		> 10 µM (inactive)		28.9 µM (inactive)	15.3 µM (inactive)	0.67 µM (active)		19.3 µM (inactive)	30.1 µM (inactive)			18.6 µM (inactive)	23.4 µM (inactive)
CN1CC(C(=O)C2C(=O)c3ccccc3C2=O)C(=O)C(=O)C(C(=O)C2C(=O)c3ccccc3C2=O)C1 (stereo unspecified)		> 100 µM (inactive)	> 100 µM (inactive)	> 100 µM (inactive)	> 10 µM (inactive)	> 100 µM (inactive)	> 100 µM (inactive)	> 100 µM	> 10 µM (inactive)		> 100 µM (inactive)	> 100 µM (inactive)			> 10 µM (inactive)	> 100 µM (inactive)			> 100 µM (inactive)	> 100 µM (inactive)
N#Cc1nc(Nc2ccc(Cl)cc2)sc1N	24.2 µM (inactive)	10.2 µM (inactive)	4.54 µM (inactive)	23 µM (inactive)	23.6 µM (inactive)	13.8 µM (inactive)	1.52 µM (inactive)	7.18 µM	15 µM (inactive)		10.7 µM (inactive)	6.68 µM (inactive)	2.34 µM (inactive)		17.8 µM (inactive)	16.4 µM (inactive)			11.6 µM (inactive)	13.2 µM (inactive)
N#Cc1ccccc1NC(=O)c1ccccc1	> 100 µM (inactive)	> 100 µM (inactive)	> 100 µM (inactive)	> 100 µM (inactive)		> 100 µM (inactive)		> 100 µM	> 100 µM (inactive)		> 100 µM (inactive)	> 100 µM (inactive)	> 100 µM (inactive)	> 100 µM (inactive)	> 100 µM (inactive)	> 100 µM (inactive)			> 100 µM (inactive)	> 100 µM (inactive)
CC1COS(=O)N1c1ccccc1 (stereo unspecified)	> 100 µM (inactive)	> 100 µM (inactive)		> 100 µM (inactive)	> 100 µM (inactive)	> 100 µM (inactive)	> 100 µM (inactive)	> 100 µM	> 100 µM (inactive)		> 100 µM (inactive)	> 100 µM (inactive)	> 100 µM (inactive)	> 100 µM (inactive)		> 100 µM (inactive)			> 100 µM (inactive)	> 100 µM (inactive)
Nc1nc(SCCC/C=C/B(O)O)nc2c1ncn2C1OC(COP(=O)(O)O)C(O)C1O (stereo unspecified)		> 203 µM (inactive)	> 203 µM (inactive)	> 203 µM (inactive)	> 203 µM (inactive)	> 203 µM (inactive)	> 203 µM (inactive)	> 203 µM	> 203 µM (inactive)		> 203 µM (inactive)	> 203 µM (inactive)	> 203 µM (inactive)		> 203 µM (inactive)	> 203 µM (inactive)			> 203 µM (inactive)	> 203 µM (inactive)
